Assay results from patent publication US10221163B2 (priority 2015, dated 2019).
Read-outs that look alike come from different tables or passages of the source.

Legend:
[1] = biological target: VIM-1 (Pseudomonas aeruginosa (strain ATCC 15692 / DSM 22644 / CIP 104116 / JCM 14847 / LMG 12228 / 1C / PRS 101 / PAO1), UniProt A0A0F7KYQ8); experiment: biochemical; settings: CCF2-FA substrate, 30 pM enzyme, 2 hours at 25° C.
Procedure, shortened: (§1)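 Class B activity is measured in the presence of compound by fluorescence with CCF2-FA after a 2-hour incubation at 25° C. IC50 is taken from a 4-parameter fit of semi-logarithmic dose-response data.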

[2] = system: Pseudomonas aeruginosa MB9798 vs MB9799
Procedure, shortened: (§2)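 Microbroth MIC tests in PAO1-background strains with fixed imipenem and/or ceftazidime, usually at the CLSI breakpoint, plus fixed class A/C β-lactamase inhibitor against AmpC. MBL inhibitor titrated; concentration restoring susceptibility recorded and compared as fold difference between efflux+ MB9798 and efflux− MB9799.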

[3] = biological target: NDM-1 (Klebsiella pneumoniae, UniProt C7C422); experiment: biochemical; format: biochemical; settings: fluorescence assay, CCF2-FA substrate, 1 pM enzyme, 2 hours at 25° C.; read-out: NDM-1 IC50
Chain of NDM-1 (C7C422 whole entry, looked up, species assumed): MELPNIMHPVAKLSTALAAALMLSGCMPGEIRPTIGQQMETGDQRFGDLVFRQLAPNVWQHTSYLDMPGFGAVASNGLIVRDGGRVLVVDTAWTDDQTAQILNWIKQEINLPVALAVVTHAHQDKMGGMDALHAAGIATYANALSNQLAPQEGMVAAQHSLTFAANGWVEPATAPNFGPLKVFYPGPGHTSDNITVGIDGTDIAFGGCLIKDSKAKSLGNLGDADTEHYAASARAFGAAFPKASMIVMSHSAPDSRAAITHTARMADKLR
Procedure, shortened: as §1

[4] = biological target: IMP-1 (Serratia marcescens, UniProt P52699); experiment: biochemical; format: biochemical; settings: fluorescence assay, CCF2-FA substrate, 2 pM enzyme, 2 hours at 25° C.; read-out: IMP-1 IC50
Chain of IMP-1 (P52699 whole entry, looked up, species assumed): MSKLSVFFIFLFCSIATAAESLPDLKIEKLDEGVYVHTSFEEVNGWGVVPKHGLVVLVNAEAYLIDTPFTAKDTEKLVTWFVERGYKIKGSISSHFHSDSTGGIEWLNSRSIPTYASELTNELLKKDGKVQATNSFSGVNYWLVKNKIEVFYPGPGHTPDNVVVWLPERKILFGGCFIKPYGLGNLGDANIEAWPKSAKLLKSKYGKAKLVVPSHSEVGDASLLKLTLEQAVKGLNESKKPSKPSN
Procedure, shortened: as §1

[5] = system: Pseudomonas aeruginosa efflux− (MB9799), IMP-1; format: cell-based; settings: C, D serine β-lactamase inhibitor closely related to relebactam; for P. aeruginosa expressing IMP-1, efflux − (MB9799) MITC95: concentration restoring susceptibility to imipenem at 2 μg/mL in the presence of a class A; for Concentration of metallo-β-lactamase inhibitor which restores susceptibility of efflux − (MB9799) strain to imipenem: imipenem at 2 μg/mL, in the presence of a class A
Procedure, shortened: as §2

[6] = system: Serratia marcescens expressing IMP-1 (CL5741); format: cell-based; settings: for Serratia marcescens expressing IMP-1 (CL5741) MITC95: with imipenem 1 μg/ml, 95% inhibition of bacterial growth; for Serratia marcescens MITC95: IMP-1 strain CL5741, with imipenem 1 μg/ml, 95% inhibition of growth
Procedure, shortened: (§3)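 Clinical strains grown overnight on blood agar at 35°C, colonies suspended in saline, diluted 1:100 into 1.1×CAMHB. Test compound titrated with imipenem at 1 μg/ml; incubated 22–24 h at 35°C, growth read by absorbance.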

[7] = system: Klebsiella pneumoniae expressing VIM-1 (IHMA599644); format: cell-based; settings: for Klebsiella pneumoniae expressing VIM-1 (IHMA599644) MITC95: with imipenem 1 μg/ml, 95% inhibition of bacterial growth; for Klebsiella pneumoniae MITC95: VIM-1 strain IHMA599644, with imipenem 1 μg/ml, 95% inhibition of growth
Procedure, shortened: as §3

[8] = system: Escherichia coli expressing NDM-1 (CLB30005, CLB30016); format: cell-based; settings: with imipenem 1 μg/ml; for Escherichia coli expressing NDM-1 (CLB30016) MITC95: 95% inhibition of bacterial growth; for Escherichia coli MITC95: NDM-1 strain, 95% inhibition of growth
Procedure, shortened: as §3

[9] = system: Pseudomonas aeruginosa efflux+ (MB9798), IMP-1; format: cell-based; parameters: Concentration of metallo-β-lactamase inhibitor which restores susceptibility of efflux + (MB9798) strain to imipenem: unit not given here; settings: C, D serine β-lactamase inhibitor closely related to relebactam; for P. aeruginosa expressing IMP-1, efflux + (MB9798) MITC95: concentration restoring susceptibility to imipenem at 2 μg/mL in the presence of a class A; for Concentration of metallo-β-lactamase inhibitor which restores susceptibility of efflux + (MB9798) strain to imipenem: imipenem at 2 μg/mL, in the presence of a class A
Procedure, shortened: as §2

[10] = fluorescence assay, read-out: VIM-1 IC50
[11] = ratio MITC95 PA_9798/MITC95 PA_9799
[12] = fold difference between efflux+ (MB9798) and efflux− (MB9799) strains, imipenem at 2 μg/mL

SMILES | IC50 [1, 10] [nM] | Efflux ratio [2, 11] | IC50 [3] [nM] | IC50 [4] [nM] | P. aeruginosa expressing IMP-1, efflux − (MB9799) MITC95 [5] [µM] | Serratia marcescens expressing IMP-1 (CL5741) MITC95 [6] [µM] | Klebsiella pneumoniae expressing VIM-1 (IHMA599644) MITC95 [7] [µM] | Escherichia coli expressing NDM-1 (CLB30016) MITC95 [8] [µM] | P. aeruginosa expressing IMP-1, efflux + (MB9798) MITC95 [9] [µM] | Serratia marcescens MITC95 [6] [µM] | Klebsiella pneumoniae MITC95 [7] [µM] | Escherichia coli MITC95 [8] [µM] | IC50 ([1]; VIM-1 IC50, fluorescence assay) [nM] | Efflux ratio [2, 12] | Concentration of metallo-β-lactamase inhibitor which restores susceptibility of efflux − (MB9799) strain to imipenem [5] | Concentration of metallo-β-lactamase inhibitor which restores susceptibility of efflux + (MB9798) strain to imipenem [9]
NC(=O)[C@H](N)CNS(=O)(=O)c1ccc(-c2cccc3[nH]c(N)nc23)c(-c2nn[nH]n2)c1S(N)(=O)=O [Example 188, (2R)-2-amino-3-(4-(2-amino-1H-benzo[d]imidazol-4-yl)-2-sulfamoyl-3-(2H-tetrazol-5-yl)phenylsulfonamido)propanamide] | 0.213 | 0.50 | 0.0756 | 0.613 | 1.563 | 1.563 | 3.125 | 1.563 | 0.7813 |  |  |  |  |  |  | 
Nc1cccc(-c2ccc(S(=O)(=O)N[C@@H]3CCNC3)c(S(N)(=O)=O)c2-c2nn[nH]n2)n1 [Example 277, (R)-4-(6-aminopyridin-2-yl)-N1-(pyrrolidin-3-yl)-3-(2H-tetrazol-5-yl)benzene-1,2-disulfonamide] | 0.129 | 1.00 | 0.148 | 1.27 | 0.7813 |  |  |  | 0.7813 | 1.563 | 1.563 | 0.7813 |  |  |  | 
CN([C@H]1CCNC1)S(=O)(=O)c1ccc(-c2cccc3sc(N)nc23)c(-c2nnn[nH]2)c1S(N)(=O)=O [Example 65, 4-(2-amino-1,3-benzothiazol-4-yl)-N1-methyl-N1-[(3S)-pyrrolidin-3-yl]-3-(1H-tetrazol-5-yl)benzene-1,2-disulfonamide] | 1.43 | 2.00 | 0.464 | 0.703 | 1.563 | 3.125 | 3.125 | 6.25 | 3.125 |  |  |  |  |  |  | 
Nc1nc2c(-c3ccc(S(=O)(=O)N4CCC(F)(F)C4)c(S(N)(=O)=O)c3-c3nnn[nH]3)cccc2s1 [Example 43, 3-(2-amino-1,3-benzothiazol-4-yl)-6-[(3,3-difluoropyrrolidin-1-yl)sulfonyl]-2-(1H-tetrazol-5-yl)benzenesulfonamide] | 1.86 | 63.98 | 2.07 | 1.23 | 1.563 | 6.25 | 100 | 25 | 100 |  |  |  |  |  |  | 
NCc1nc2c(-c3ccc(S(=O)(=O)NC[C@@H](O)CN)c(S(N)(=O)=O)c3-c3nn[nH]n3)cccc2s1 [Example 306, (S)—N1-(3-amino-2-hydroxypropyl)-4-(2-(aminomethyl)benzo[d]thiazol-4-yl)-(2H-tetrazol-5-yl)benzene-1,2-disulfonamide] |  | 1.00 | 0.0587 | 0.293 | 0.7813 |  |  |  | 0.7813 | 0.7813 | 1.563 | 0.7813 | 0.0564 |  |  | 
N[C@H](CO)CNS(=O)(=O)c1ccc(-c2cccc3[nH]cnc23)c(-c2nn[nH]n2)c1S(N)(=O)=O [Example 296, (S)—N^1-(2-amino-3-hydroxypropyl)-4-(1H-benzo[d]imidazol-4-yl)-3-(2H-tetrazol-5-yl)benzene-1,2-disulfonamide] | 0.184 | 1.00 | 0.0409 | 0.198 | 0.7813 |  |  |  | 0.7813 | 1.563 | 3.125 | 1.563 |  |  |  | 
Nc1nc(-c2cccc(-c3ccc(S(=O)(=O)N[C@@H]4CCNC4)c(S(N)(=O)=O)c3-c3nn[nH]n3)c2)c[nH]1 [Example 428] |  |  | 0.0473 | 0.407 |  |  |  |  |  | 0.7813 | 1.563 | 0.3906 | 0.133 | 1.00 | 0.7813 | 0.7813
Nc1nc2c(-c3ccc(S(=O)(=O)N[C@@H]4C[C@H]4N)c(S(N)(=O)=O)c3-c3nnn[nH]3)cccc2[nH]1 [Example 448, 4-(2-amino-1H-benzo[d]imidazol-4-yl)-N^1-((1R,2R)-2-aminocyclopropyl)-3-(1H-tetrazol-5-yl)benzene-1,2-disulfonamide] | 0.557 |  | 0.151 | 0.988 |  |  |  |  |  | 1.563 | 6.25 | 0.7813 |  | 0.50 | 3.125 | 1.563
Nc1ncc(-c2cc(-c3ccc(S(=O)(=O)N[C@@H]4CCNC4)c(S(N)(=O)=O)c3-c3nnn[nH]3)ccn2)[nH]1 [Example 440, (R)-4-(2-(2-Amino-1H-imidazol-5-yl)pyridin-4-yl)-N^1-(pyrrolidin-3-yl)-3-(1H-tetrazol-5-yl)benzene-1,2-disulfonamide] |  |  | 0.333 | 3.96 |  |  |  |  |  | 1.563 | 1.563 | 0.7813 | 0.571 | 2.00 | 0.7813 | 1.563
NCCNS(=O)(=O)c1ccc(-c2ccc3[nH]c(CN)nc3c2)c(-c2nn[nH]n2)c1S(N)(=O)=O [Example 466, N1-(2-aminoethyl)-4-(2-(aminomethyl)-1H-benzo[d]imidazol-5-yl)-3-(2H-tetrazol-5-yl)benzene-1,2-disulfonamide] | 0.138 |  | 0.359 | 0.967 |  |  |  |  |  | 1.563 | 1.563 | 0.7813 |  | 1.00 | 0.7813 | 0.7813
